This is an account of results in patent US9963464B2, “Macrocyclic compounds” (Bayer Pharma Aktiengesellschaft, priority 2014, dated 2018).

One experiment addresses T1, CDK2/CycE (Homo sapiens, UniProt P24941).
T1 construct: GST; purchased ProQinase GmbH (Freiburg, Germany); host or cells: insect cells (Sf9)
Description: CDK2/CycE high ATP kinase assay (TR-FRET, Method 2b). In kind it is biochemical. The settings on record: 2 mM ATP. How it is done: 2b. CDK2/CycE High ATP Kinase Assay:
CDK2/CycE-inhibitory activity of compounds of the present invention at 2 mM adenosine-tri-phosphate (ATP) was quantified employing the CDK2/CycE TR-FRET (TR-FRET=Time Resolved Fluorescence Resonance Energy Transfer) assay as described in the following paragraphs.
Recombinant fusion proteins of GST and human CDK2 and of GST and human CycE, expressed in insect cells (Sf9) and purified by Glutathion-Sepharose affinity chromatography, were purchase from ProQinase GmbH (Freiburg, Germany). As substrate for the kinase reaction biotinylated peptide biotin-Ttds-YISPLKSPYKISEG (C-terminus in amid form) was used which can be purchased e.g. from the company JERINI peptide technologies (Berlin, Germany).
For the assay 50 nl of a 100 fold concentrated solution of the test compound in DMSO was pipetted into a black low volume 384 well microtiter plate (Greiner Bio-One, Frickenhausen, Germany), 2 μl of a solution of CDK2/CycE in aqueous assay buffer [50 mM Tris/HCl pH 8.0, 10 mM MgCl2, 1.0 mM dithiothreitol, 0.1 mM sodium ortho-vanadate, 0.01% (v/v) Nonidet-P40 (Sigma)] were added and the mixture was incubated for 15 min at 22° C. to allow pre-binding of the test compounds to the enzyme before the start of the kinase reaction. […] The concentration of CDK2/CycE was adjusted depending of the activity of the enzyme lot and was chosen appropriate to have the assay in the linear range, typical concentrations were in the range of 15 ng/ml. The reaction was stopped by the addition of 5 μl of a solution of TR-FRET detection reagents (0.2 μM streptavidine-XL665 [Cisbio Bioassays, Codolet, France] and 1 nM anti-RB(pSer807/pSer811)-antibody from BD Pharmingen [#558389] and 1.2 nM LANCE EU-W1024 labeled anti-mouse IgG antibody [Perkin-Elmer, product no. AD0077, as an alternative a Terbium-cryptate-labeled anti-mouse IgG antibody from Cisbio Bioassays can be used]) in an aqueous EDTA-solution (100 mM EDTA, 0.2% (w/v) bovine serum albumin in 100 mM HEPES pH 7.5).
The resulting mixture was incubated 1 h at 22° C. to allow the formation of complex between the phosphorylated biotinylated peptide and the detection reagents. Subsequently the amount of phosphorylated substrate was evaluated by measurement of the resonance energy transfer from the Eu-chelate to the streptavidine-XL. Therefore, the fluorescence emissions at 620 nm and 665 nm after excitation at 350 nm were measured in a TR-FRET reader, e.g. a Rubystar (BMG Labtechnologies, Offenburg, Germany) or a Viewlux (Perkin-Elmer). The ratio of the emissions at 665 nm and at […] was taken as the measure for the amount of phosphorylated substrate. The data were normalised (enzyme reaction without inhibitor=0% inhibition, all other assay components but no enzyme=100% inhibition).
On the technique in general: Time-resolved FRET reads energy transfer from a long-lived donor to a nearby acceptor.

The subject of a further experiment is Caco-2 cells. Nature of the experiment: Proliferation assay Caco-2. In kind it is cell-based, human. To be noted: Homo sapiens, Caco-2, 96 h, 4 days, crystal violet; read-out: Inhibition of Caco-2 cell proliferation IC50. On the procedure: Cultivated tumour cells (HeLa, human cervical tumour cells, ATCC CCL-2; NCI-H460, human non-small cell lung carcinoma cells, ATCC HTB-177; A2780, human ovarian carcinoma cells, ECACC #93112519; DU 145, hormone-independent human prostate carcinoma cells, ATCC HTB-81; HeLa-MaTu-ADR, multidrug-resistant human cervical carcinoma cells, EPO-GmbH Berlin; Caco-2, human colorectal carcinoma cells, ATCC HTB-37; B16F10, mouse melanoma cells, ATCC CRL-6475) were plated at a density of 5,000 cells/well (DU145, HeLa-MaTu-ADR), 3,000 cells/well (NCI-H460, HeLa), 2,500 cells/well (A2780), 1,500 cells/well (Caco-2), or 1,000 cells/well (B16F10) in a 96-well multititer plate in 200 μL of their respective growth medium supplemented 10% fetal calf serum. After 24 hours, the cells of one plate (zero-point plate) were stained with crystal violet (see below), while the medium of the other plates was replaced by fresh culture medium (200 μl), to which the test substances were added in various concentrations (0 μM, as well as in the range of 0.001-10 μM). The cells were incubated for 4 days in the presence of test substances. Cell proliferation was determined by staining the cells with crystal violet: the cells were fixed by adding 20 μl/measuring point of an 11% glutaric aldehyde solution for 15 minutes at room temperature. After three washing cycles of the fixed cells with water, the plates were dried at room temperature. The cells were stained by adding 100 μl/measuring point of a 0.1% crystal violet solution (pH 3.0). After three washing cycles of the stained cells with water, the plates were dried at room temperature. The dye was dissolved by adding 100 μl/measuring point of a 10% acetic acid solution. The extinction was determined by photometry at a wavelength of 595 nm. The change of cell number, in percent, was calculated by normalization of the measured values to the extinction values of the zero-point plate (=0%) and the extinction of the untreated (0 μm) cells (=100%). The IC50 values (inhibitory concentration at 50% of maximal effect) were determined by means of a 4 parameter fit. Non-adherent MOLM-13 human acute myeloid leukemia cells (DSMZ ACC 554) were seeded at a density of 5,000 cells/well in a 96-well multititer plate in 100 μL of growth medium supplemented 10% fetal calf serum. After 24 hours, cell viability of one plate (zero-point plate) was determined with the Cell Titre-Glo Luminescent Cell Viability Assay (Promega), while 50 μL of test compound containing medium was added to the wells of the other plates (final concentrations in the range of 0.001-1 μM and DMSO controls). Cell viability was assessed after 72-hour exposure with the Cell Titre-Glo Luminescent Cell Viability Assay (Promega). IC50 values (inhibitory concentration at 50% of maximal effect) were determined by means of a 4 parameter fit on measurement data which were normalized to vehicle (DMSO) treated cells (=100%) and measurement readings taken immediately before compound exposure (=0%).

Take `CS(=N)(=O)Cc1cc2cc(c1)OCCCCOc1cc(F)ccc1-c1nc(ncc1F)N2` (racemic) [Example 1, (rac)-16,20-Difluoro-9-[(S-methylsulfonimidoyl)methyl]-2,3,4,5-tetrahydro-12H-13,17-(azeno)-11,7-(metheno)-1,6,12,14-benzodioxadiazacyclononadecine]: the IC50 against CDK2/CycE came to 216 nM; with Caco-2 cells, 9 nM.
For `C[S+]([O-])Cc1cc2nc(c1)OCCCOc1cc(F)ccc1-c1cc(ncc1F)N2` (racemic) [Example 4, (rac)-15,19-Difluoro-8-[(methylsulfinyl)methyl]-3,4-dihydro-2H,11H-10,6-(azeno)-12,16-(metheno)-1,5,11,13-benzodioxadiazacyclooctadecine] the same measures were 32.1 nM and 10 nM.
Turning to `CS(=N)(=O)Cc1cc2nc(c1)OCCCOc1cc(F)ccc1-c1cc(ncc1F)N2` (racemic) [Example 5, (rac)-15,19-Difluoro-8-[(S-methylsulfonimidoyl)methyl]-3,4-dihydro-2H,11H-10,6-(azeno)-12,16-(metheno)-1,5,11,13-benzodioxadiazacyclooctadecine], the IC50 against CDK2/CycE turned out to be 20 nM; with Caco-2 cells it was 4 nM.
The corresponding values for `C[S+]([O-])Cc1cc2nc(c1)OCCOc1cc(F)ccc1-c1cc(ncc1F)N2` (racemic) [Example 10, (rac)-14,18-difluoro-7-[(methylsulfinyl)methyl]-2,3-dihydro-10H-9,5-(azeno)-11,15-(metheno)-1,4,10,12-benzodioxadiazacycloheptadecine] are 3500 nM and 584 nM.
The corresponding values for `CS(=N)(=O)Cc1cc2nc(c1)OCCOc1cc(F)ccc1-c1cc(ncc1F)N2` (racemic) [Example 11, (rac)-14,18-difluoro-7-[(S-methylsulfonimidoyl)methyl]-2,3-dihydro-10H-9,5-(azeno)-11,15-(metheno)-1,4,10,12-benzodioxadiazacycloheptadecine] are 2120 nM and 158 nM.
For `C[S+]([O-])Cc1cc2nc(c1)OCCCCOc1cc(F)ccc1-c1cc(ncc1F)N2` (racemic) [Example 13, (rac)-16,20-difluoro-9-[(methylsulfinyl)methyl]-2,3,4,5-tetrahydro-12H-11,7-(azeno)-13,17-(metheno)-1,6,12,14-benzodioxadiazacyclononadecine] the same measures were 113 nM and 22 nM.
As for `CS(=N)(=O)Cc1cc2nc(c1)OCCCCOc1cc(F)ccc1-c1cc(ncc1F)N2` (racemic) [Example 14, (rac)-16,20-difluoro-9-[(S-methylsulfonimidoyl)methyl]-2,3,4,5-tetrahydro-12H-11,7-(azeno)-13,17-(metheno)-1,6,12,14-benzodioxadiazacyclononadecine], the IC50 against CDK2/CycE was 162 nM; with Caco-2 cells, 13 nM.
The corresponding values for `CS(=N)(=O)Cc1cc2cc(c1)OCCCOc1cc(F)ccc1-c1nc(ncc1F)N2` (racemic) [Example 15, (rac)-15,19-difluoro-8-[(S-methylsulfonimidoyl)methyl]-3,4-dihydro-2H,11H-12,16-(azeno)-10,6-(metheno)-1,5,11,13-benzodioxadiazacyclooctadecine] are 237 nM and 17 nM.
The corresponding values for `CS(=O)(Cc1cc2cc(c1)OCCCOc1cc(F)ccc1-c1nc(ncc1F)N2)=NC(=O)C(F)(F)F` (racemic) [Example 16, (rac)-N-[{[15,19-difluoro-3,4-dihydro-2H,11H-12,16-(azeno)-10,6-(metheno)-1,5,11,13-benzodioxadiazacyclooctadecin-8-yl]methyl}(methyl)oxido-λ^6-sulfanylidene]-2,2,2-trifluoroacetamide] are 670 nM and 15 nM.
Take `CCNC(=O)N=S(C)(=O)Cc1cc2nc(c1)OCCCOc1cc(F)ccc1-c1cc(ncc1F)N2` (racemic) [Example 17, (rac)-1-[{[15,19-difluoro-3,4-dihydro-2H,11H-10,6-(azeno)-12,16-(metheno)-1,5,11,13-benzodioxadiazacyclooctadecin-8-yl]methyl}(methyl)oxido-λ^6-sulfanylidene]-3-ethylurea]: the IC50 came to 35.9 nM against CDK2/CycE and 21 nM with Caco-2 cells.
The corresponding values for `CC(=O)N=S(C)(=O)Cc1cc2nc(c1)OCCCOc1cc(F)ccc1-c1cc(ncc1F)N2` (racemic) [Example 18, (rac)-N-[{[15,19-difluoro-3,4-dihydro-2H,11H-10,6-(azeno)-12,16-(metheno)-1,5,11,13-benzodioxadiazacyclooctadecin-8-yl]methyl}(methyl)oxido-λ^6-sulfanylidene]acetamide] are 63.2 nM and 14 nM.
For `CN=S(C)(=O)Cc1cc2nc(c1)OCCCOc1cc(F)ccc1-c1cc(ncc1F)N2` (racemic) [Example 19, (rac)-8-[(N,S-dimethylsulfonimidoyl)methyl]-15,19-difluoro-3,4-dihydro-2H,11H-10,6-(azeno)-12,16-(metheno)-1,5,11,13-benzodioxadiazacyclooctadecine] the same measures were 159 nM and 33 nM.
Turning to `CCOC(=O)N=S(C)(=O)Cc1cc2nc(c1)OCCCOc1cc(F)ccc1-c1cc(ncc1F)N2` (racemic) [Example 20, (rac)-ethyl [{[15,19-difluoro-3,4-dihydro-2H,11H-10,6-(azeno)-12,16-(metheno)-1,5,11,13-benzodioxadiazacyclooctadecin-8-yl]methyl}(methyl)oxido-λ^6-sulfanylidene]carbamate], the IC50 against CDK2/CycE amounted to 44.6 nM; with Caco-2 cells, 24 nM.
For `CS(=O)(Cc1cc2nc(c1)OCCCOc1cc(F)ccc1-c1cc(ncc1F)N2)=NC(=O)OCCCl` (racemic) [Example 21, (rac)-2-chloroethyl [{[15,19-difluoro-3,4-dihydro-2H,11H-10,6-(azeno)-12,16-(metheno)-1,5,11,13-benzodioxadiazacyclooctadecin-8-yl]methyl}(methyl)oxido-λ^6-sulfanylidene]carbamate] the same measures were 74.8 nM and 16 nM.
